{"source": "paper PMC2625337", "about": "“Flexible modulation of agonist efficacy at the human A3 adenosine receptor by the imidazoquinoline allosteric enhancer LUF6000” (BMC Pharmacology, 2008)", "type_in_all_cases": "biochemical", "key": {"[1]": {"target": "T1, human A1 adenosine receptor (A1 AR) (Homo sapiens, UniProt P30542)", "T1 construct": "gene ADORA1; full-length receptor stably expressed in CHO cells, membrane preparation", "T1 sequence (P30542 1-326)": "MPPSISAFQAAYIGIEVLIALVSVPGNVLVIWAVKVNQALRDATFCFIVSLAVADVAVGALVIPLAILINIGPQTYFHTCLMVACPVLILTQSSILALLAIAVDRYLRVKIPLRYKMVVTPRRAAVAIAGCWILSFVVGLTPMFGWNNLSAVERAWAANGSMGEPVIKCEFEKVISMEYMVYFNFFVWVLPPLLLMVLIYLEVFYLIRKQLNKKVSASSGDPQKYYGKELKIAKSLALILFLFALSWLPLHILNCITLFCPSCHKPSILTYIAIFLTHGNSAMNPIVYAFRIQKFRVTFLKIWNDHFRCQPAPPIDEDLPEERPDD", "conditions": "high-efficacy agonist"}, "[2]": {"target": "T2, human A3 adenosine receptor (A3 AR) (Homo sapiens, UniProt P0DMS8)", "T2 construct": "gene ADORA3; full-length receptor stably expressed in CHO cells, membrane preparation", "T2 sequence (P0DMS8 1-318)": "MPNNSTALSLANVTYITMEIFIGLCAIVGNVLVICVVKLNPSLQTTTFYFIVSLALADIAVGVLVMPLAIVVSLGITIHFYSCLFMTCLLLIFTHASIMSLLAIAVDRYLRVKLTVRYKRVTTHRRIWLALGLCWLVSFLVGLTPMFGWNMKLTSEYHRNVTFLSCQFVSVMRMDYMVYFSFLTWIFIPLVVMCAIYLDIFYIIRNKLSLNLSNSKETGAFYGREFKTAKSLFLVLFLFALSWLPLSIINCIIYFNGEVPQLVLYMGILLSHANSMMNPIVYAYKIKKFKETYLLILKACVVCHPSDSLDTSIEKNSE", "assay": "[…]GTPgammaS binding, CHO membranes"}, "[3]": {"target": "T2, human A3 adenosine receptor (A3 AR)", "assay": "[…]GTPgammaS binding, CHO membranes", "conditions": "alone, no LUF6000; antagonist"}, "[4]": {"target": "T2, human A3 adenosine receptor (A3 AR)", "assay": "[…]GTPgammaS binding, CHO membranes", "conditions": "agonist alone, no LUF6000"}}, "data": [{"smiles": "OC[C@H]1O[C@@H](n2cnc3c(NC4CCCC4)nc(Cl)nc32)[C@H](O)[C@@H]1O", "note": "[CCPA, 2-chloro-N^6-cyclopentyladenosine]", "values": [{"measurement": "[35S]GTPgammaS binding, CHO membranes", "setting": "[1]", "result": "high-efficacy agonists CPA and CCPA or a low efficacy agonist MRS541 to activate the A1"}]}, {"smiles": "CNC(=O)[C@H]1O[C@@H](n2cnc3c(NCc4cccc(I)c4)ncnc32)[C@H](O)[C@@H]1O", "note": "[IB-MECA]", "values": [{"measurement": "[35S]GTPgammaS binding, CHO membranes", "setting": "[2]; agonist", "result": "IB-MECA was almost as efficacious as Cl-IB-MECA"}]}, {"smiles": "Clc1ccc(Nc2nc3ccccc3c3nc(C4CCCCC4)[nH]c23)cc1Cl", "note": "[LUF6000, N-(3,4-dichloro-phenyl)-2-cyclohexyl-1H-imidazo [4,5-c]quinolin-4-amine]", "values": [{"measurement": "[35S]GTPgammaS binding, CHO membranes", "setting": "[2]; allosteric enhancer, tested at 0.1-10 µM with agonists", "result": "LUF6000 showed a flexible modulatory effect of efficacy"}]}, {"smiles": "OC[C@H]1O[C@@H](n2cnc3c(NCc4cccc(I)c4)nc(Cl)nc32)[C@H](O)[C@@H]1O", "note": "[MRS542, 2-chloro-N^6-(3-iodobenzyl)adenosine]", "values": [{"measurement": "Emax (%)", "setting": "[3]", "result": "5.6 ± 2.5", "unit": "%"}]}, {"smiles": "O=c1[nH]cnc2c1ncn2[C@@H]1O[C@H](CO)[C@@H](O)[C@H]1O", "note": "[inosine]", "values": [{"measurement": "Emax (% of NECA)", "setting": "[4]", "result": "< 10", "unit": "%"}]}]}
